SMILES strings stand for the structures.

Here are results for two molecules from patent US8143889B2, “Simultaneous acquisitions of spin- and stimulated-echo planar imaging” (University of Utah Research Foundation, priority 2009, dated 2012).

What all share (type): physicochemical
Series [1] is described as follows: T1 and turbo-FLASH signal intensity on phantom with different concentrations of Gd-BOPTA. The procedure:
The results are plotted in FIG. 12. […] The dosage 0.1˜0.2 mM [PBCA]/kg is the routine dosage for DCE-MRI and local concentrations may easily exceed 0.2˜0.4 mM/kg in organs with high-blood supply or at the periphery of a tumor. The signal behavior of the gradient-echo MRI varies widely with the selection of TR, TE, and flipangle, and for T1. Although a set of these imaging parameters may be linear for a small range of PBCA concentrations and specific T1, it will not be linear for other T1 values. […] Thus, direct conversion of SI to the concentration is subject to large error, which will be propagated into the subsequent kinetic calculation. In contrast, the realtime T1 mapping provided by embodiments of the invention described above is linearly related to the PBCA concentration. Thus, the realtime T1 mapping provides accurate realtime estimation of the PBCA concentration resulting in improvement of the accuracy of drug-delivery or tumor evaluation.

The nature of series [2]: T1 of MnCl2/water phantom by saturation-recovery spin-echo. The conditions noted are these: 3 Tesla. The procedure:
(§1) MRI studies were performed on a Siemens Trio 3 Tesla MRI system (Siemens Medical Solutions, Erlangen, Germany) with Avanto gradients (45 mT/m strength and 150 T/m/s slew rate). The pulse sequence was developed based on a singleshot spin-echo EPI sequence, using the IDEA pulse sequence development environment. Realtime calculation of T1 mapping was implemented into a custom-made ICE program (Image Construction Environment). The image construction program produced two magnitude images, two phase images, and a T1 map for each slice.
A phantom was constructed with four 20 cc plastic bottles filled with 0.05, 0.1, 0.2, and 0.4 mM MnCl2/water solutions, respectively, and immersed in jello in a rectangular acrylic container with dimensions 8×8×13 cm^3. The T1 of each concentration was 1.3, 0.9, 0.55, 0.35 sec for 0.05, 0.1, 0.2, 0.4 mM, respectively. T1 of the phantom was measured using saturation-recovery spin-echo.

Series [3] is described as follows: T1 mapping of MnCl2/water phantom by inversion-recovery spin-echo (IR-SE) imaging and 2D ss-SGSTEPI. Particulars: 3 Tesla. The procedure: as §1
A phantom was constructed with 4 plastic bottles filled with MnCl2/water solutions with concentrations of 0.05, 0.1, 0.2, and 0.4 mM, which were surrounded by jello. T1 mapping experiment was conducted using inversion-recovery spin-echo (IR-SE) imaging and 2D ss-SGSTEPI. T1 of each concentration of MnCl2/water solution were measured as 1.5, 0.89, 0.55, 0.35 sec for […], respectively.

For the molecule `CNC[C@H](O)[C@@H](O)[C@H](O)[C@H](O)CO.CNC[C@H](O)[C@@H](O)[C@H](O)[C@H](O)CO.O=C([O-])CN(CCN(CC(=O)[O-])CC(=O)O)CCN(CC(=O)O)C(COCc1ccccc1)C(=O)[O-].[Gd+3]` (stereo not shown) [Gd-BOPTA, Gadobenate dimeglumine], in series [1] (FIG. 12(b)), the “T1 relaxation rate (1/T1) of the water proton vs. concentration” value is on record as “very linear with the concentration”. For the same molecule, in series [1] (TR/TE=7.2/2.7 ms, flipangle 30°, FIG. 12(a)), the “signal intensities of turboFLASH and spin-EPI vs. concentration” value was “non-linear even at low concentration”.

`[Cl][Mn][Cl]` [MnCl2]: the T1 in series [2] (0.05 mM MnCl2/water solution) was found to be 1.3 s; in series [2] (0.1 mM MnCl2/water solution), 0.9 s; in series [2] (0.2 mM MnCl2/water solution) it was 0.55 s; in series [2] (0.4 mM MnCl2/water solution), 0.35 s; in series [3] (0.05 mM MnCl2/water solution) it was 1.5 s; in series [3] (0.1 mM MnCl2/water solution) it was 0.89 s. The values for the T1 in series [3] (0.2 mM MnCl2/water solution) and in series [3] (0.5 mM MnCl2/water solution) were 0.55 s and 0.35 s, respectively.
